Assay results taken from patent US20150018311A1, “THERAPEUTIC BORON-CONTAINING COMPOUNDS” (priority 2012, published 2015).

Tests used:
Test in all cases: Growth in liquid media in presence of test compound
Format in all cases: cell-based
[1] = system: Streptococcus pyogenes (ATCC 19615)
[2] = system: Staphylococcus aureus (ATCC 25923)
[3] = system: Escherichia coli (ATCC 25922)
[4] = system: Pseudomonas aeruginosa (ATCC 27853)
[5] = system: Candida albicans (ATCC 90028)
[6] = system: Mycobacterium tuberculosis (H37Rv)

Structure (SMILES) | Growth in the presence of test compound, S. pyogenes ([1]; 5 mg/L) | Growth in the presence of test compound, S. pyogenes ([1]; 50 mg/L) | Growth in the presence of test compound, S. pyogenes ([1]; 500 mg/L) | Growth in the presence of test compound, S. aureus ([2]; 5 mg/L) | Growth in the presence of test compound, S. aureus ([2]; 50 mg/L) | Growth in the presence of test compound, S. aureus ([2]; 500 mg/L) | Growth in the presence of test compound, E. coli ([3]; 5 mg/L) | Growth in the presence of test compound, E. coli ([3]; 50 mg/L) | Growth in the presence of test compound, E. coli ([3]; 500 mg/L) | Growth in the presence of test compound, P. aeruginosa ([4]; 5 mg/L) | Growth in the presence of test compound, P. aeruginosa ([4]; 50 mg/L) | Growth in the presence of test compound, P. aeruginosa ([4]; 500 mg/L) | Growth in the presence of test compound, C. albicans ([5]; 5 mg/L) | Growth in the presence of test compound, C. albicans ([5]; 50 mg/L) | Growth in the presence of test compound, C. albicans ([5]; 500 mg/L) | Growth in the presence of test compound, M. tuberculosis ([6]; 5 mg/L) | Growth in the presence of test compound, M. tuberculosis ([6]; 50 mg/L) | Growth in the presence of test compound, M. tuberculosis ([6]; 500 mg/L)
CC1(C)C2CC3OB(C(Cc4ccccc4)C(Cc4ccccc4)NC(=O)C(N)CCCCN)OC3(C)C1C2 (stereo not drawn) [Compound 31] | + | + | − | + | + | − | + | + | − | + | + | − | + | + | − | + | − | −
CC(B1OC2CC3CC(C3(C)C)C2(C)O1)C(Cc1ccccc1)NC(=O)C(Cc1ccccc1)NC(=O)C(N)CCCCN (stereo not drawn) [Compound 36] | + | + | − | + | + | − | + | + | − | + | + | − | + | + | ± | + | − | −
NCCCC[C@H](N)C(=O)NC[C@@H](Cc1ccccc1)B(O)O [Compound 38] | + | + | − | + | + | ± | + | + | ± | + | + | + | + | + | ± | − | − | −
